Like-named read-outs stand apart in the source and are kept apart here.

In this experiment the test system is MOLM-13 cells. Kind of experiment: Viability assay in MOLM-13 cells (CellTiter-Glo 2.0). The note with it: read-out: MOLM-13 IC50 (cell viability). In kind it is cell-based, human.
Setting [1] is: MOLM-13 human AML cells, 72 hours, CellTiter-Glo 2.0.

Description: Effects of test compounds on the proliferation and viability of human AML cells was evaluated using the MOLM-13 cell line (AddexBio Technologies cat. no. C0003003). […] Test compounds or controls (Bortezomib or DMSO) diluted in 2% DMSO/media were added to each well for final concentrations of 0.2% DMSO and 0.1-1 μM Bortezomib. The cells were incubated for 72 hours at 37° C. and 5% CO2. At the end of the 72 hour incubation, plates were removed from the incubator, cooled to room temperature and equal volume of CellTiter-Glo 2.0 (Promega) added to each well. After mixing and incubating the plate at room temperature for 10 minutes the luminescence was read using a plate reader. […] Concentration-response-curves and IC50 values were generated using Collaborative Drug Discovery software.

Consider `CCOc1cncc2c(=O)n(Cc3cn4cc(C)ccc4n3)ccc12` [Compound 3, 5-ethoxy-2-((6-methylimidazo[1,2-a]pyridin-2-yl)methyl)-2,7-naphthyridin-1(2H)-one], for which the IC50 – broadly, the concentration at which inhibition is half-maximal – under setting [1] was above 10 µM. With `Cc1ccc2nc(Cn3ccc4c(N5CC(c6ccccc6)C5)cncc4c3=O)cn2c1` [Compound 7, 2-((6-methylimidazo[1,2-a]pyridin-2-yl)methyl)-5-(3-phenylazetidin-1-yl) 2,7-naphthyridin-1(2H)-one], the IC50 under setting [1] was above 10 µM. Turning to `Cc1ccc2nc(Cn3ccc4c(N5CCC5)cncc4c3=O)cn2c1` [Compound 9, 5-(azetidin-1-yl)-2-((6-methylimidazo[1,2-a]pyridin-2-yl)methyl)-2,7-naphthyridin-1(2H)-one], the IC50 (Homo sapiens, MOLM-13, 72 h) is above 10 µM. On to `Cc1ccc2nc(Cn3ccc4c(N5CCCCC5)cncc4c3=O)cn2c1` [Compound 10, 2-((6-methylimidazo[1,2-a]pyridin-2-yl)methyl)-5-(piperidin-1-yl)-2,7-naphthyridin-1(2H)-one], for which, under setting [1], the IC50 is above 10 µM. The same measure, in the same setting: then `Cc1ccc2nc(Cn3ccc4c(C5CC5)cncc4c3=O)cn2c1` [Compound 11, 5-cyclopropyl-2-((6-methylimidazo[1,2-a]pyridin-2-yl)methyl)-2,7-naphthyridin-1(2H)-one], with above 10 µM. As for `Cc1ccc2nc(Cn3ccc4c(-c5cc[nH]n5)cncc4c3=O)cn2c1` [Compound 15, 2-((6-methylimidazo[1,2-a]pyridin-2-yl)methyl)-5-(1H-pyrazol-3-yl)-2,7-naphthyridin-1(2H)-one], the IC50 under setting [1] is above 10 µM.

For the compound `Cc1ccc2nc(Cn3ccc4c(-c5cccnc5)cncc4c3=O)cn2c1` [Compound 17, 2-((6-methylimidazo[1,2-a]pyridin-2-yl)methyl)-5-(pyridin-3-yl)-2,7-naphthyridin-1(2H)-one], the IC50 under setting [1] is above 10 µM. On to `CNC(=O)c1ccc(-c2cncc3c(=O)n(Cc4cn5cc(C)ccc5n4)ccc23)cc1` [Compound 26, N-methyl-4-(7-((6-methylimidazo[1,2-a]pyridin-2-yl)methyl)-8-oxo-7,8-dihydro-2,7-naphthyridin-4-yl)benzamide], for which the IC50 under setting [1] was above 10 µM.

As for `Cc1ccc2nc(Cn3ccc4c(-c5ccccc5C#N)cncc4c3=O)cn2c1` [Compound 28, 2-(7-((6-methylimidazo[1,2-a]pyridin-2-yl)methyl)-8-oxo-7,8-dihydro-2,7-naphthyridin-4-yl)benzonitrile], the IC50 under setting [1] is above 10 µM.

`Cc1ccc2nc(Cn3ccc4c(-c5c(F)cccc5F)cncc4c3=O)cn2c1` [Compound 29, 5-(2,6-difluorophenyl)-2-((6-methylimidazo[1,2-a]pyridin-2-yl)methyl)-2,7-naphthyridin-1(2H)-one]: the half-maximal inhibitory concentration (IC50) under setting [1] was above 10 µM. In the case of `Cc1ccc2nc(Cn3ccc4c(-c5c(C)cccc5F)cncc4c3=O)cn2c1` [Compound 30, 5-(2-fluoro-6-methylphenyl)-2-((6-methylimidazo[1,2-a]pyridin-2-yl)methyl)-2,7-naphthyridin-1(2H)-one], under setting [1], the IC50 is above 10 µM.

Take `CC(=O)Nc1ccc(-c2cncc3c(=O)n(Cc4cn5cc(C)ccc5n4)ccc23)cn1` [Compound 38, N-(5-(7-((6-methylimidazo[1,2-a]pyridin-2-yl)methyl)-8-oxo-7,8-dihydro-2,7-naphthyridin-4-yl)pyridin-2-yl)acetamide]: the IC50 under setting [1] is above 10 µM. `Cc1ccc2nc(Cn3ccc4c(C#CC5CC5)cncc4c3=O)cn2c1` [Compound 46, 5-(cyclopropylethynyl)-2-((6-methylimidazo[1,2-a]pyridin-2-yl)methyl)-2,7-naphthyridin-1(2H)-one]: the IC50 under setting [1] was above 10 µM. Still for that read-out and setting: then `Cc1ccc2nc(Cn3cc(C)c4ccncc4c3=O)cn2c1` [Compound 49, 4-methyl-2-((6-methylimidazo[1,2-a]pyridin-2-yl)methyl)-2,7-naphthyridin-1(2H)-one], with 1 to 10 µM.

`O=c1c2cnccc2ccn1Cc1cn2cc(CNCc3ccccc3)ccc2n1` [Compound 69, 2-((6-((benzylamino)methyl)imidazo[1,2-a]pyridin-2-yl)methyl)-2,7-naphthyridin-1(2H)-one]: the IC50 (Homo sapiens, MOLM-13, 72 h) is above 10 µM. With `O=c1c2cnccc2ccn1Cc1cn2cc(CNCC3CCCCC3)ccc2n1` [Compound 71, 2-((6-(((cyclohexylmethyl)amino)methyl)imidazo[1,2-a]pyridin-2-yl)methyl)-2,7-naphthyridin-1(2H)-one], the IC50 under setting [1] was above 10 µM.

As for `O=c1c2cncc(-c3ccccc3)c2ccn1Cc1cn2cc(CNCc3ccccc3)ccc2n1` [Compound 72, 2-((6-((benzylamino)methyl)imidazo[1,2-a]pyridin-2-yl)methyl)-5-phenyl-2,7-naphthyridin-1(2H)-one], the IC50 under setting [1] lay within 1 to 10 µM. `CC(C)(C)CNCc1ccc2nc(Cn3ccc4c(-c5ccccc5)cncc4c3=O)cn2c1` [Compound 73, 2-((6-((neopentylamino)methyl)imidazo[1,2-a]pyridin-2-yl)methyl)-5-phenyl-2,7-naphthyridin-1(2H)-one]: under setting [1], the IC50 was 1 to 10 µM.

In the case of `O=c1c2cncc(-c3ccccc3)c2ccn1Cc1cn2cc(CNCC3(O)CCC3)ccc2n1` [Compound 74, 2-((6-((((1-hydroxycyclobutyl)methyl)amino)methyl)imidazo[1,2-a]pyridin-2-yl)methyl)-5-phenyl-2,7-naphthyridin-1(2H)-one], the IC50 under setting [1] is above 10 µM. Take `O=c1c2cncc(-c3ccccc3)c2ccn1Cc1cn2cc(CNCC3(F)CCC3)ccc2n1` [Compound 75, 2-((6-((((1-fluorocyclobutyl)methyl)amino)methyl)imidazo[1,2-a]pyridin-2-yl)methyl)-5-phenyl-2,7-naphthyridin-1(2H)-one]: the concentration for half-maximal inhibition (IC50) under setting [1] was above 10 µM.

For `O=c1c2cncc(-c3ccccc3)c2ccn1Cc1cn2cc(CNCC3CCCC3)ccc2n1` [Compound 76, 2-((6-(((cyclopentylmethyl)amino)methyl)imidazo[1,2-a]pyridin-2-yl)methyl)-5-phenyl-2,7-naphthyridin-1(2H)-one], the concentration for half-maximal inhibition (IC50) under setting [1] is 1 to 10 µM.

For the compound `O=c1c2cncc(-c3ccccc3)c2ccn1Cc1cn2cc(CNCC3CCCCC3)ccc2n1` [Compound 77, 2-((6-(((cyclohexylmethyl)amino)methyl)imidazo[1,2-a]pyridin-2-yl)methyl)-5-phenyl-2,7-naphthyridin-1(2H)-one], the IC50 under setting [1] was in the range of 1 to 10 µM. With `O=c1c2cncc(-c3ccccc3)c2ccn1Cc1cn2cc(CNC3(c4ccccc4)CC3)ccc2n1` [Compound 78, 5-phenyl-2-((6-(((1-phenylcyclopropyl)amino)methyl)imidazo[1,2-a]pyridin-2-yl)methyl)-2,7-naphthyridin-1(2H)-one], the IC50 (Homo sapiens, MOLM-13, 72 h) was in the range of 1 to 10 µM.

With `O=c1c2cncc(-c3ccccc3)c2ccn1Cc1cn2cc(CNCC3CC(F)C3)ccc2n1` (stereo not shown) [Compound 79, 2-((6-((((3-fluorocyclobutyl)methyl)amino)methyl)imidazo[1,2-a]pyridin-2-yl)methyl)-5-phenyl-2,7-naphthyridin-1(2H)-one], the IC50 under setting [1] fell in the range of 1 to 10 µM. As to `O=c1c2cncc(-c3ccccc3)c2ccn1Cc1cn2cc(CNC3(c4ccccc4)CCC3)ccc2n1` [Compound 80, 5-phenyl-2-((6-(((1-phenylcyclobutyl)amino)methyl)imidazo[1,2-a]pyridin-2-yl)methyl)-2,7-naphthyridin-1(2H)-one], the IC50 under setting [1] lay in the range of 1 to 10 µM. Same read-out and setting: the result for `CC(C)(NCc1ccc2nc(Cn3ccc4c(-c5ccccc5)cncc4c3=O)cn2c1)c1ccccc1` [Compound 81, 5-phenyl-2-((6-(((2-phenylpropan-2-yl)amino)methyl)imidazo[1,2-a]pyridin-2-yl)methyl)-2,7-naphthyridin-1(2H)-one] reads 1 to 10 µM; that for `O=c1c2cncc(-c3ccccc3)c2ccn1Cc1cn2cc(CNC(CO)c3ccccc3)ccc2n1` (stereo not shown) [Compound 82, 2-((6-(((2-hydroxy-1-phenylethyl)amino)methyl)imidazo[1,2-a]pyridin-2-yl)methyl)-5-phenyl-2,7-naphthyridin-1(2H)-one], 1 to 10 µM. As to `O=c1c2cncc(-c3ccccc3)c2ccn1Cc1cn2cc(CNCc3ccc(Cl)cc3)ccc2n1` [Compound 84, 2-((6-(((4-chlorobenzyl)amino)methyl)imidazo[1,2-a]pyridin-2-yl)methyl)-5-phenyl-2,7-naphthyridin-1(2H)-one], the IC50 (Homo sapiens, MOLM-13, 72 h) was 1 to 10 µM.

As for `CC1CCC(CNCc2ccc3nc(Cn4ccc5c(-c6ccccc6)cncc5c4=O)cn3c2)CC1` (stereo not shown) [Compound 85, 2-((6-((((4-methylcyclohexyl)methyl)amino)methyl)imidazo[1,2-a]pyridin-2-yl)methyl)-5-phenyl-2,7-naphthyridin-1(2H)-one], the IC50 under setting [1] lay in the range of 1 to 10 µM. Same read-out and setting: the result for `Cc1ccc(CNCc2ccc3nc(Cn4ccc5c(-c6ccccc6)cncc5c4=O)cn3c2)cc1` [Compound 86, 2-((6-(((4-methylbenzyl)amino)methyl)imidazo[1,2-a]pyridin-2-yl)methyl)-5-phenyl-2,7-naphthyridin-1(2H)-one] reads 1 to 10 µM; that for `CC(=O)Nc1ccc(-c2cncc3c(=O)n(Cc4cn5cc(CNCC6CC(F)C6)ccc5n4)ccc23)cn1` (stereo not shown) [Compound 87, N-(5-(7-((6-((((3-fluorocyclobutyl)methyl)amino)methyl)imidazo[1,2-a]pyridin-2-yl)methyl)-8-oxo-7,8-dihydro-2,7-naphthyridin-4-yl)pyridin-2-yl)acetamide], 1 to 10 µM. `O=c1c2cncc(C3CC3)c2ccn1Cc1cn2cc(CNCC3CCC3)ccc2n1` [Compound 88, 2-((6-(((cyclobutylmethyl)amino)methyl)imidazo[1,2-a]pyridin-2-yl)methyl)-5-cyclopropyl-2,7-naphthyridin-1(2 h)-one]: the IC50 under setting [1] lay in the range of 1 to 10 µM.

For the compound `O=c1c2cncc(N3CCC3)c2ccn1Cc1cn2cc(CNCC3CC(F)C3)ccc2n1` (stereo not shown) [Compound 89, 5-(azetidin-1-yl)-2-((6-((((3-fluorocyclobutyl)methyl)-amino)methyl)imidazo[1,2-a]pyridin-2-yl)methyl)-2,7-naphthyridin-1(2H)-one], the IC50 under setting [1] was in the range of 1 to 10 µM. Turning to `CCNc1ccc2ccc(-c3ccc(Cn4ccc5c(-c6ccccc6)cncc5c4=O)cc3)cc2n1` [Compound 93, 2-(4-(2-(ethylamino)quinolin-7-yl)benzyl)-5-phenyl-2,7-naphthyridin-1(2H)-one], the IC50 under setting [1] fell in the range of 1 to 10 µM.

Source of the values: patent publication US20250059207A1, “6,6-FUSED HETEROCYCLIC COMPOUNDS AS METTL3 INHIBITORS” (858 Therapeutics, Inc., priority 2021, published 2025).
